Entries after “also recorded” stand apart in the source; their conditions may differ.
How the values were obtained:
[1] = tested on: MDA-MB-453 (breast; mutant p53); test: MTT antiproliferative assay, MDA-MB-453; assay type: cell-based; details: Homo sapiens; MDA-MB-453, MTT, 72 h treatment, mean ± SD of 5–6 data
Procedure: (§1) Human tumor cell lines A2780 [ovary, adenocarcinoma, accession number HTL98008, obtained from Interlab Cell Line Collection (ICLC), Genova, Italy], A549 (lung, carcinoma, HTL03001, ICLC), MDA-MB-453 (breast, carcinoma, HTL01013, ICLC), and HepG2 (liver, carcinoma, HB-8065, American Type Culture Collection, Rockville, MA, USA ) were plated at 1.4 × 10^4/ml, 0.65 × 10^4/mL, 4.7 × 10^4/mL, and 1.0 × 10^4/mL, respectively, in 180 μL complete medium (RPMI 1640 for A2780 and A549 and DMEM for MDA-MB-453 and HepG2) into flat-bottomed 96-well microtiter plates. After 6–8 h cells were treated with 20 μL containing five 1:10 fold concentrations of our compounds diluted in FCS containing 3% DMSO. As normal non-cancer cell targets we used peripheral blood lymphocytes obtained from three healthy volunteers, isolated by gradient centrifugation (Lympholyte-H Cell Separation Media, EuroClone, Pero, MI, Italy) and stimulated with 1% phytohemagglutinin and 100 U/ml recombinant IL-2. One week after stimulation cells were ready for use at 15,000/well.
In both cases, after 72 h treatment, the MTT assay was applied as described elsewhere. The IC50 values were calculated from the analysis of single concentration–response curves, each final value is the mean of 5–6 experiments. IC100 and IC75 were extrapolated from the mean concentration–response curves.

activated PBL = test: MTT assay on normal PBL activated with PHA and recombinant IL-2; assay type: cell-based; details: Homo sapiens, mean ± SD of 4–6 IC50 values
Procedure: as §1
In both cases, after 72 h treatment, the MTT assay was applied as described elsewhere. […] IC100 and IC75 were extrapolated from the mean concentration–response curves.

A549 cells = test: Annexin-V-FITC / propidium iodide apoptosis assay; assay type: cell-based, human; details: A549, compounds at their specific IC75s, three days
Procedure: The induction of apoptosis was evaluated in A549 cells characterized by wild-type p53 and MDM2 proteins. They were plated at the opportune concentration (see above) into 25 cm^2 flasks in 10 mL complete medium. After 6–8 h the compounds were added at their specific IC75s, as previously calculated by the MTT assay.
All floating and adherent cells were harvested three days later, washed with normal saline buffer, and apoptosis determined by double staining with Annexin-V-FITC and propidium iodide (PI) (rh AnnexinV/FITC Kit, Bender MedSystem GmbH, Vienna, Austria). Briefly, 0.5 × 10^6 cells were resuspended in binding buffer 1× and stained with 5 μL of Annexin-V-FITC. After 10 min incubation 10 μL of PI were added and samples incubated for 5 min. Samples were immediately analyzed using a Flow Cytometer (FACScan, BD Biosciences, Milano, Italy) with dedicated software.

p53 = test: Western blot of p53 level in A549 cells; assay type: cell-based, human
Procedure: (§2) A549 cells were treated with different concentrations of the molecules as indicated. Cell extracts were prepared as described. Ten-20 μg of total proteins were resolved on 4–15% Mini protean TGX precast gels (Bio-Rad) and transferred to nitrocellulose membrane using 1704158 Trans-Blot Turbo Mini NC Transfer Packs (Bio-Rad) in a Trans-Blot Turbo apparatus (Bio-Rad). Membranes were blocked with 5% non-fat dry milk in 0.1% Tween-20 in PBS for 1 h, then incubated for 1 h at room temperature or overnight at 4 °C with the appropriate primary antibody. The following antibodies were employed: anti-p53 (DO-1, sc-126, Santa Cruz Biotechnology, 1:20.000), anti-p21 (2946, Cell Signaling, 1:2000), anti-MDM2 (SMP14, sc-965, Santa Cruz Biotechnology, 1:200), anti β-actin (AC-74, Sigma-Aldrich, 1:30.000); secondary anti-mouse IgG peroxidase conjugate (A9044, Sigma–Aldrich, 1:10.000) and secondary anti-rabbit peroxidase conjugate (A9169, Sigma-Aldrich, 1: 12.000). Detection was carried out with ECL FAST PICO (ECL-1002, Immunological Sciences, Roma, Italy). Chemiluminescence was analysed by Alliance LD, UVITEC Cambridge (Cambridge, UK).

MDM2 = test: Western blot of MDM2 level in A549 cells; assay type: cell-based, human
Procedure: as §2

p21 = test: Western blot of p21 level in A549 cells; assay type: cell-based, human; details: A549
Procedure: as §2

[2] = A549, drug concentration equivalent to IC75 (30 µM), fold over mock
[3] = A549, 0.2 µM derivative alone or 14 µM doxorubicin alone
[4] = A549, 0.2 µM derivative plus 14 µM doxorubicin

Structure (SMILES): Cc1c(C(=O)C2C(c3ccc(C(F)(F)F)cc3)C3CSCN3C23C(=O)Nc2ccccc23)cnn1-c1ccccc1 (stereo not drawn) [8k, 6'-(5-Methyl-1-phenyl-1H-pyrazole-4-carbonyl)-7'-(4-(trifluoromethyl)phenyl)-1',6',7',7a'-tetrahydro-3'H-spiro[indoline-3,5'-pyrrolo[1,2-c]thiazol]-2-one]
- IC50 [1]: 21.4 µM
- IC50 (activated PBL; PBL A): 49.8 ± 3.2 µM
- IC50 (activated PBL; PBL B): 55.3 ± 1.4 µM
- IC50 (activated PBL; PBL C): 50.9 ± 1.2 µM
- apoptotic activity (A549 cells): highly significant apoptotic activity; also recorded: considerable high level of apoptosis
- p53 level (p53; [2]): did not induce any changes; also recorded: did not induce p53
- p53 level, single agent (p53; [3]): did not increase
- p53 level, combined treatment compared to doxorubicin alone (p53; [4]): no further increases
- MDM2 modulation, dose–response (MDM2; A549, 24 h, 0.01, 0.1, 1, 10 µM): induced MDM2 down regulation at any concentration; also recorded: dose-dependent down regulation of MDM2
- MDM2 level (MDM2; [2]): downmodulated MDM2; also recorded: clear down modulation; also recorded: down regulation of MDM2
- MDM2 level, single agent (MDM2; [3]): slight but not significant MDM2 increase
- MDM2 level, combined treatment compared to doxorubicin alone (MDM2; [4]): no further increases
- p21 level, single agent (p21; 0.2 µM derivative alone or 14 µM doxorubicin alone): did not increase
- p21 level, combined treatment compared to doxorubicin alone (p21; 0.2 µM derivative plus 14 µM doxorubicin): no further increases
- melting point: 138 to 139 °C
